Residue numbers refer to the chain shown, from its start. Read-outs that look alike come from different tables or passages of the source.
Legend:
RET(KD: 658-1114 G810R) = target: T1, RET(KD: 658-1114 G810R) (Homo sapiens, UniProt P07949, G810R); test: HiBiT-Degradation, RET G810R degradation assay (Nano-Glo HiBiT Lytic), 293T.165 cells; assay type: cell-based; conditions: for Emax / DC50: 6.0 hours; for Emax: % remaining protein, read-out: 293T.165 RET(KD: 658-1114 G810R) 6.0 hours (Emax); for DC50: read-out: 293T.165 RET(KD: 658-1114 G810R) 6.0 hours (DC50)
T1 construct: 658-1114; expressed in transfected cells; host or cells: 293T.165 (293T cells, generated in-house)
T1 sequence (P07949 658-1114 G810R): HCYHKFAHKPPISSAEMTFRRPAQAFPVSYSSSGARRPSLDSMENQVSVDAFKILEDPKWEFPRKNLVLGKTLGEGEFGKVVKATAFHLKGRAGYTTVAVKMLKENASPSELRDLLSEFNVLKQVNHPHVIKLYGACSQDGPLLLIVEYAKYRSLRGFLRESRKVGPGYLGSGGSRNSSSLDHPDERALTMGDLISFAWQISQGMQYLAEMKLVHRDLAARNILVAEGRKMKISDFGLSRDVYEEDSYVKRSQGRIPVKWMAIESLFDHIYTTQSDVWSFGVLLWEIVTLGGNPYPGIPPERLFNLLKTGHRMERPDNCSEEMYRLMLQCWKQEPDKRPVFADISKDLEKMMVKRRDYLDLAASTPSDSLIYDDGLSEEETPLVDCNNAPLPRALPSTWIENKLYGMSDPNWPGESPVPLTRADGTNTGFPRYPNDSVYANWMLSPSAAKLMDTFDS
Summary of the method: (§1)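 HEK293T lines expressing HiBiT-tagged RET kinase domain, wild-type (293T.144) or G810R (293T.165), treated 6 h in duplicate, 11-point half-log series from 10 μM top. Lytic HiBiT luminescence read; DC50 and Emax (% protein remaining) from dose-response curves.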

RET (658-1114) = target: T2, RET (658-1114) (Homo sapiens, UniProt P07949); test: HiBiT-Degradation, RET wild-type degradation assay (Nano-Glo HiBiT Lytic), 293T.144 cells; assay type: cell-based; conditions: for Emax / DC50: 6.0 hours; for Emax: read-out: 293T.144 RET (658-1114) 6.0 hours (Emax); for DC50: read-out: 293T.144 RET (658-1114) 6.0 hours (DC50)
T2 construct: 658-1114; expressed in transfected cells; host or cells: 293T.144 (293T cells, generated in-house)
T2 sequence (P07949 658-1114): T1 sequence (P07949 658-1114 G810R) with R153G
Summary of the method: as §1

[1] = half-maximal degradation concentration

Row | 293T.165 RET(KD: 658-1114 G810R) 6.0 hours (IP) [nM] (RET(KD: 658-1114 G810R)) | Emax (RET(KD: 658-1114 G810R)) | DC50 (RET(KD: 658-1114 G810R); [1]) | 293T.144 RET (658-1114) 6.0 hours (IP) [nM] (RET (658-1114)) | Emax (RET (658-1114); % remaining protein) | DC50 (RET (658-1114); [1]) | 293T.165 RET(KD: 658-1114 G810R) 6.0 hours (Emax) (RET(KD: 658-1114 G810R); HiBiT-Degradation) | 293T.165 RET(KD: 658-1114 G810R) 6.0 hours (IP) [nM] (RET(KD: 658-1114 G810R); HiBiT-Degradation) | DC50 (RET(KD: 658-1114 G810R); HiBiT-Degradation) | 293T.144 RET (658-1114) 6.0 hours (IP) [nM] (RET (658-1114); HiBiT-Degradation) | DC50 (RET (658-1114); HiBiT-Degradation) | Emax (RET (658-1114); HiBiT-Degradation) | SMILES
1 | ++++ (<50 nM = ++++) | < 30% | < 100 nM | ++++ (<50 nM = ++++) | < 30% | < 50 nM |  |  |  |  |  |  | CCC1(C(=O)Nc2ccc(F)cc2)CCN(c2ccc(-c3nc(-c4cnn(C5CCN(C(=O)CC6(O)CCN(c7ccc(NC8CCC(=O)NC8=O)cc7Cl)CC6)CC5)c4)cn4ncc(C#N)c34)cn2)CC1 (centres unmarked) [Compound 100, 1-[5-[6-[1-[1-[2-[1-[2-chloro-4-[(2,6-dioxo-3-piperidyl)amino]phenyl]-4-hydroxy-4-piperidyl]acetyl]-4-piperidyl]pyrazol-4-yl]-3-cyano-pyrazolo[1,5-a]pyrazin-4-yl]-2-pyridyl]-4-ethyl-N-(4-fluorophenyl)piperidine-4-carboxamide]
2 | ++++ (<50 nM = ++++) | < 30% | < 50 nM | ++++ (<50 nM = ++++) | < 30% | < 50 nM |  |  |  |  |  |  | N#Cc1cnn2cc(-c3cnn(C4CCN(C(=O)CC5(O)CCN(c6ccc(NC7CCC(=O)NC7=O)cc6F)CC5)CC4)c3)nc(-c3ccc(N4CCN(C(=O)c5ccon5)CC4)nc3)c12 (centres unmarked) [Compound 116, 6-(1-(1-(2-(1-(4-((2,6-dioxopiperidin-3-yl)amino)-2-fluorophenyl)-4-hydroxypiperidin-4-yl)acetyl)piperidin-4-yl)-1H-pyrazol-4-yl)-4-(6-(4-(isoxazole-3-carbonyl)piperazin-1-yl)pyridin-3-yl)pyrazolo[1,5-a]pyrazine-3-carbonitrile]
3 | ++++ (<50 nM = ++++) | < 30% | < 50 nM | ++++ (<50 nM = ++++) | < 30% | < 50 nM |  |  |  |  |  |  | CCC1(NC(=O)C(C)C)CCN(c2ccc(-c3nc(-c4cnn([C@H]5CC[C@@H](N6CCN(c7ccc8c(N9CCC(=O)NC9=O)nn(C)c8c7F)CC6)CC5)c4)cn4ncc(C#N)c34)cn2)CC1 (single isomer, unassigned) [Compound 125, N-(1-(5-(3-Cyano-6-(1-((1s, 4s)-4-(4-(3-(2,4-dioxotetrahydropyrimidin-1(2H)-yl)-7-fluoro-1-methyl-1H-indazol-6-yl)piperazin-1-yl)cyclohexyl)-1H-pyrazol-4-yl)pyrazolo[1,5-a]pyrazin-4-yl)pyridin-2-yl)-4-ethylpiperidin-4-yl)isobutyramide]
4 |  | < 30% | < 100 nM |  |  |  | ++++ (< 30% = ++++) | ++++ (< 50 nM = ++++) | < 100 nM | ++++ (< 50 nM = ++++) | < 50 nM | < 30% | N#Cc1cnn2cc(-c3ccc(N4CCN(C(=O)CN5CCC(c6ccc(NC7CCC(=O)NC7=O)cc6F)CC5)CC4)cc3)cc(-c3ccc(N4CCN(C(=O)Cc5ccc(F)cn5)CC4)nc3)c12 (centres unmarked) [Compound 16, 6-[4-[4-[2-[4-[4-[(2,6-dioxo-3-piperidyl)amino]-2-fluoro-phenyl]-1-piperidyl]acetyl]piperazin-1-yl]phenyl]-4-[6-[4-[2-(5-fluoro-2-pyridyl)acetyl]piperazin-1-yl]-3-pyridyl]pyrazolo[1,5-a]pyridine-3-carbonitrile]
5 | ++++ (<50 nM = ++++) | < 30% | < 50 nM | ++++ (<50 nM = ++++) | < 30% | < 50 nM |  |  |  |  |  |  | CCC1(C(=O)NC(C)C)CCN(c2ccc(-c3nc(-c4cnn(C5CN(C(=O)CC6(O)CCN(c7ccc(NC8CCC(=O)NC8=O)cc7F)CC6)C5)c4)cn4ncc(C#N)c34)cn2)CC1 (centres unmarked) [Compound 184, 1-[5-[3-cyano-6-[1-[1-[2-[1-[4-[(2,6-dioxo-3-piperidyl)amino]-2-fluoro-phenyl]-4-hydroxy-4-piperidyl]acetyl]azetidin-3-yl]pyrazol-4-yl]pyrazolo[1,5-a]pyrazin-4-yl]-2-pyridyl]-4-ethyl-N-isopropyl-piperidine-4-carboxamide]
6 | ++++ (<50 nM = ++++) | < 50% | < 50 nM | ++++ (<50 nM = ++++) | < 30% | < 50 nM |  |  |  |  |  |  | CCC1(C(=O)NC2CCC2)CCN(c2ccc(-c3nc(-c4cnn([C@H]5C[C@H](CN6CCN(c7ccc(N[C@H]8CCC(=O)NC8=O)cc7F)CC6)C5)c4)cn4ncc(C#N)c34)cn2)CC1 [Compound 188, 1-[5-[3-cyano-6-[1-[3-[[4-[4-[[(3S)-2,6-dioxo-3-piperidyl]amino]-2-fluoro-phenyl]piperazin-1-yl]methyl]cyclobutyl]pyrazol-4-yl]pyrazolo[1,5-a]pyrazin-4-yl]-2-pyridyl]-N-cyclobutyl-4-ethyl-piperidine-4-carboxamide]
7 | ++++ (<50 nM = ++++) | < 30% | < 100 nM | ++++ (<50 nM = ++++) | < 30% | < 50 nM |  |  |  |  |  |  | COc1cc(N2CCN([C@H]3CC[C@H](n4cc(-c5cn6ncc(C#N)c6c(-c6ccc(N7C[C@@H]8[C@@H](CNC(=O)c9ncccc9Cl)[C@@H]8C7)nc6)n5)cn4)CC3)CC2)c(F)cc1NC1CCC(=O)NC1=O (stereo partly drawn) [Compound 168, 3-chloro-N-[[(1S,5R)-3-[5-[3-cyano-6-[1-[4-[4-[4-[(2,6-dioxo-3-piperidyl)amino]-2-fluoro-5-methoxy-phenyl]piperazin-1-yl]cyclohexyl]pyrazol-4-yl]pyrazolo[1,5-a]pyrazin-4-yl]-2-pyridyl]-3-azabicyclo[3.1.0]hexan-6-yl]methyl]pyridine-2-carboxamide]
8 | +++ (<100 nM = +++) | < 30% | < 100 nM | ++++ (<50 nM = ++++) | < 30% | < 50 nM |  |  |  |  |  |  | CCC1(C(=O)NC2CCC2)CCN(c2ccc(-c3nc(-c4cnn(C5CCN([C@H]6CCN(c7ccc(N[C@H]8CCC(=O)NC8=O)cc7F)CC6(F)F)CC5)c4)cn4ncc(C#N)c34)cn2)CC1 (single isomer, unassigned) [Compound 191]

Row | SMILES | 293T.165 RET(KD: 658-1114 G810R) 6.0 hours (IP) [nM] (RET(KD: 658-1114 G810R)) | Emax (RET(KD: 658-1114 G810R)) | DC50 (RET(KD: 658-1114 G810R); [1]) | 293T.144 RET (658-1114) 6.0 hours (IP) [nM] (RET (658-1114)) | Emax (RET (658-1114); % remaining protein) | DC50 (RET (658-1114); [1]) | 293T.165 RET(KD: 658-1114 G810R) 6.0 hours (Emax) (RET(KD: 658-1114 G810R); HiBiT-Degradation) | 293T.165 RET(KD: 658-1114 G810R) 6.0 hours (IP) [nM] (RET(KD: 658-1114 G810R); HiBiT-Degradation) | DC50 (RET(KD: 658-1114 G810R); HiBiT-Degradation) | 293T.144 RET (658-1114) 6.0 hours (IP) [nM] (RET (658-1114); HiBiT-Degradation) | DC50 (RET (658-1114); HiBiT-Degradation) | Emax (RET (658-1114); HiBiT-Degradation)
9 | N#Cc1cnn2cc(-c3cnn([C@H]4CC[C@@H](N5CCN(c6ccc(NC7CCC(=O)NC7=O)cc6F)CC5)CC4)c3)nc(-c3ccc(N4CC5CC(C4)N5CC4CCC(F)(F)CC4)nc3)c12 (single isomer, unassigned) [Compound 178, 4-(6-(6-((4,4-Difluorocyclohexyl)methyl)-3,6-diazabicyclo[3.1.1]heptan-3-yl)pyridin-3-yl)-6-(1-((1s, 4s)-4-(4-(4-((2,6-dioxopiperidin-3-yl)amino)-2-fluorophenyl)piperazin-1-yl)cyclohexyl)-1H-pyrazol-4-yl)pyrazolo[1,5-a]pyrazine-3-carbonitrile] | ++++ (<50 nM = ++++) | < 30% | < 50 nM | ++++ (<50 nM = ++++) | < 30% | < 50 nM |  |  |  |  |  | 
10 | COc1ccc(CN2C[C@H]3COC[C@@H](C2)N3c2ccc(-c3nc(-c4cnn([C@H]5CC[C@H](N6CCN(c7ccc(NC8CCC(=O)NC8=O)cc7F)CC6)CC5)c4)cn4ncc(C#N)c34)cn2)cn1 (stereo partly drawn) [Compound 160, 6-[1-[4-[4-[4-[(2,6-dioxo-3-piperidyl)amino]-2-fluoro-phenyl]piperazin-1-yl]cyclohexyl]pyrazol-4-yl]-4-[6-[(1R,5S)-7-[(6-methoxy-3-pyridyl)methyl]-3-oxa-7,9-diazabicyclo[3.3.1]nonan-9-yl]-3-pyridyl]pyrazolo[1,5-a]pyrazine-3-carbonitrile] | ++++ (<50 nM = ++++) | < 30% | < 50 nM | ++++ (<50 nM = ++++) | < 30% | < 50 nM |  |  |  |  |  | 
